Experimental data: US11136328B2, “3,3-difluoropiperidine carbamate heterocyclic compounds as NR2B NMDA receptor antagonists” (Rugen Holdings (Cayman) Limited, priority 2015, dated 2021)

Columns and labels:
rats [1] = experiment: Haloperidol-induced Catalepsy (HIC) model; assay type: in vivo; conditions: 8 mg/kg p.o. 60 minutes before the test
From the text: The Haloperidol-induced Catalepsy (HIC) model detects antipsychotic activity and the action of NR2B selective antagonists (Steece-Collier et al. Exp. Neurol. 163: 239, 2000) and was based on methods described by Chermat and Simon (J. Pharmacol., 6, 493-496, 1975). The capacity to induce catalepsy serves as an index of the liability of a test substance to induce extrapyramidal side-effects, in particular Parkinsonism. Antagonism of antipsychotic-induced catalepsy can thus serve to detect anti-Parkinson potential.
Rats were injected with haloperidol (1 mg/kg i.p.) and were examined for catalepsy at 30 minute intervals up to 360 minutes. Presence (+) or absence (−) of catalepsy was assessed by three procedures: 1) imposed crossing of the ipsilateral fore- and hind-limbs; 2) placing the animal in the Buddha position; 3) the tilting board, an automatic device that, 5 seconds after positioning the rat, displaces the rat from a horizontal to vertical position and back while it clings to a wire grid with its front paws. Akinesia and catalepsy were assessed depending on whether or not the animal moves before (akinesia) or during operation of the board (catalepsy). […]
Amphetamine (8 mg/kg p.o.), administered 60 minutes before the test (i.e. 90 minutes before the first measurement), was used as reference substance. […] Data with the reference substance were analyzed using Mann-Whitney U tests.

rats [2] = experiment: Rat formalin model; assay type: in vivo; conditions: each of 10, 30 and 60 mpk i.p., mesylate salt
Method: The rat formalin model is a tonic model of continuous pain resulting from formalin-induced spontaneous nociceptive behaviors. Intra-paw injection of formalin is a commonly used model to measure spontaneous nociceptive behaviors in rodents (Dubuisson, D. and Dennis, S. G. Pain 4:161, 1977). Subcutaneous plantar injection of formalin causes a bi-phasic nocifensive behavioral response in rodents. The early phase (phase-1) lasts for about 5-10 min following which an interphase occurs without any discernible nociceptive reactions after which the late phase (phase-II) nociceptive reaction ensues continuing from about 20-60 min following formalin injection. Formalin model is a model of tonic, persistent pain, and is widely used for rapid screening of novel analgesic compounds. […] In the present example, effects of test item were assessed in 0-5 minutes from the early phase (phase-I) and 20-35 minutes from the late phase (phase-II) of formalin-induced nociceptive behavior. […]
For all groups, animals were acclimated to the observation chamber for 15 minutes immediately prior to formalin injection. All animals received an intraplantar subcutaneous injection of 50 μL of 5% formalin into the left hind paw and then placed immediately into an observation chamber and formalin-evoked spontaneous nociceptive behaviors in the rats were continuously recorded for 0-60 min using a commercial camcorder. […]

hERG channel = hERG channel (Homo sapiens (Human), UniProt Q12809); experiment: hERG channel inhibition, whole cell patch clamp; assay type: cell-based; conditions: 10 μM compound
hERG channel, sequence (Q12809 whole entry): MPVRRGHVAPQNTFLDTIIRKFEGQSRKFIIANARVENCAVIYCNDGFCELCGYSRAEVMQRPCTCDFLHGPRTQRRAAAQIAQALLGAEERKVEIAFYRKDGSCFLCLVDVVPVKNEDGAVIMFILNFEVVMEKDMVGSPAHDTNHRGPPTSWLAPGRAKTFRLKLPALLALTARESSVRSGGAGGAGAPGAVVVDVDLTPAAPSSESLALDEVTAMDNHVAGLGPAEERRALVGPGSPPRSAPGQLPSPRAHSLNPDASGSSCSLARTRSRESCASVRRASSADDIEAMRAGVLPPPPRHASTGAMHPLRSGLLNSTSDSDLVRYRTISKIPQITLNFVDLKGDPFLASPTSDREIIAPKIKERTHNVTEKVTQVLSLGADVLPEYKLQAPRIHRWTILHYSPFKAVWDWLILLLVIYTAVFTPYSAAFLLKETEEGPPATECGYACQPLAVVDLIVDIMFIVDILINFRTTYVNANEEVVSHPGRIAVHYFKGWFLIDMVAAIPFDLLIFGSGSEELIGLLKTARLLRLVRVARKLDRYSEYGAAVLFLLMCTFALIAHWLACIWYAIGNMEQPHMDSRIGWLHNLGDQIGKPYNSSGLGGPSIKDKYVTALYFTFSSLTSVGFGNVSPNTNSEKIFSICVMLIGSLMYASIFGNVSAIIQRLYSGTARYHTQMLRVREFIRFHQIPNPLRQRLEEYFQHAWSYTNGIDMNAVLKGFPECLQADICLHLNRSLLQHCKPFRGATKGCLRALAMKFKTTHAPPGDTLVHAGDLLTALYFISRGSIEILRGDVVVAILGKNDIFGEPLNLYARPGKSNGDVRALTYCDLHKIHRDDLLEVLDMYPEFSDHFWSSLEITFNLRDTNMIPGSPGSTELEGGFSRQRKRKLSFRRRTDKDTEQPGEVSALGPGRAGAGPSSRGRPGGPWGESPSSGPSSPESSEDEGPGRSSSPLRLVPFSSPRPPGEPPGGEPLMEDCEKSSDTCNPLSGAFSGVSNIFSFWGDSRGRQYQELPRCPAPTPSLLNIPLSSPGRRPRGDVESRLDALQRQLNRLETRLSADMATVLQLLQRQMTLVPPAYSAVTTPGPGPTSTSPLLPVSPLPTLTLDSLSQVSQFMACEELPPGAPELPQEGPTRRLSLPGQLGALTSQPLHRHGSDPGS
Method: The assay was performed on hERG channel stably expressed in HEK293 cells. The cells were cultured at 37° C. in a humidified CO2 incubator in the growth medium consisting of DMEM, 10% fetal bovine serum and antibiotics. Prior to the assay, the cells were seeded onto a 12 mm PDL-coated glass coverslip and cultured in a 35 mm Petri dish. After 16 to 40 hr culture, the cover slip was transferred into the chamber of OctaFlow perfusion system (ALA Instrument) and under a constant flow of extracellular solution (140 mM NaCl, 4 mM KCl, 1 mM MgCl2, 2 mM CaCl2, 10 mM HEPES, 10 mM D-glucose, pH 7.35, osmolarity 290). Whole cell patch clamping was performed with a glass micropipette filled with intracellular solution (120 mM KCl, 1.75 mM MgCl2, 5.4 mM CaCl2, 10 mM HEPES, 10 mM EGTA, and 4 mM ATP-K2, PH 7.2, osmolarity 310). Giga-seal was maintained during the test. The voltage control and current measurement were carried out using Axon amplifier 700B, Digidata 1440A and CLAMPEX10 software (Molecular Devices). Whole-cell hERG currents were recorded following the Petroski protocol: the cell was held at −80 mV, and the voltage step jumped from −80 to 30 mV and stay for 2 sec with a 20 ms prepulse at −40 mV. After depolarization, the voltage was decreased to −40 mV and stay for 2 sec, and returned back to −80 mV. Test compound was applied by quartz capillary tubes tip (200 μm inner diameter), and the flow rate was controlled at 2-3 ml/min with OctaFlow perfusion system. Different concentrations of the compound were applied to the cells for 5 min and the hERG current was measured three times before, during and after compound treatment. The data were analyzed using Clampfit 10 software (Molecular Devices) to generate IC50 values.

CYP2D6 = CYP2D6 (Homo sapiens (Human), UniProt P10635); experiment: CYP P450 enzyme inhibition in pooled human liver microsomes; assay type: in vitro ADME; conditions: 10 μM compound, pooled HLM
CYP2D6, sequence (P10635 whole entry): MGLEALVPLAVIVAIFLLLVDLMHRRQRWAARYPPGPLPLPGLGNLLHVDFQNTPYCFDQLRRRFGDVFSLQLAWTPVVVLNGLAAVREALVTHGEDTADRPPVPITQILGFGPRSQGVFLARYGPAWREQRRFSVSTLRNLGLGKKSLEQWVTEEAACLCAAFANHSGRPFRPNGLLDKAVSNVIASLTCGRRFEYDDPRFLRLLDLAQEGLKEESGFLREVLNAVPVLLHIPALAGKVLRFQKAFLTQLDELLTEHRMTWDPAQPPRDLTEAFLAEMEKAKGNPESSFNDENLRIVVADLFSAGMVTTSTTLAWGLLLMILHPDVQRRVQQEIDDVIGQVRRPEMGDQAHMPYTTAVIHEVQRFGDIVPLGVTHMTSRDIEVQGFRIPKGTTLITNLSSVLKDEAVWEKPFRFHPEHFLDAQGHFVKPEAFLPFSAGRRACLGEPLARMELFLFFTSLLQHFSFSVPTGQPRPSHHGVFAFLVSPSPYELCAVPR
Method: Those CYP isoforms and their corresponding probe substrates are as follows: CYP1A2 (phenacetin, 30 μM), CYP2C9 (tolutamide, 100 μM), CYP2C19 (S-mephenytoin, 40 μM), CYP2D6 (dextromethorphan, 5 μM) and CYP3A4 (midazolam, 1 μM). All probe substrates were used at concentrations near or below their Kms. For experiment, a reaction mixture of test compound at 10 μM or in serial dilution, CYP probe substrate described above and 0.2 mg/mL pooled HLM in phosphate buffer, pH 7.4 in a final volume of 200 μL was pre-incubated at 37° C. for 10 minutes in triplicate. The reaction was initiated by addition of NADPH at final concentration of 1 mM. The reaction was terminated after 10 minutes (CYP1A2, CYP2D6 and CYP3A4) or 30 minutes (CYP2C9 and CYP2C19) by addition of 100 μL ice-cold acetonitrile with internal standard (IS). The samples were then centrifuged at 13,000 rpm and the supernatants were injected to LC-MS/MS (Agilent Technologies) to quantify the concentration of the specific metabolites of the probe substrates formed by individual CYP450 isoforms. The inhibition ratio is calculated as: (Mt−M0)/Mwater×100% in which Mt and M0 represent the concentrations of the specific probe substrate metabolite, which was formed by individual CYP450 isoform, at the beginning and end of the reaction in the presence of test compound; while Mwater represents the concentration of the specific metabolite at the end of the reaction in the absence of test compound. Test compound concentration-dependent response data experiments performed in triplicate.

rats [3] = experiment: Electroconvulsive Threshold Test (ECT); assay type: in vivo; conditions: 3, 10 and 30 mpk p.o., mesylate salt
Method: (§1) Test compound E1-8.2 was administered as the free base.
Rats were administered ECS (rectangular current: 0.6 ms pulse width, 1.5 s duration, 200 Hz) via earclip electrodes connected to a constant current shock generator (Ugo Basile: type 7801). Test compounds were administered by oral gavage (p.o.) 1 hour before the test at a dose volume of 5 mL/kg.
Treatment groups of 20 rats were exposed to ECS as follows: The first animal was exposed to 30 mA of ECS. […] (increases of 5 mA) until the first tonic convulsion was observed. Once the first tonic convulsion was observed, the intensity of ECS was decreased by 2 mA for the next animal and then decreased or increased by 2 mA from animal to animal depending on whether the previous animal convulsed or not. If the first animal did convulse (tonic convulsions) within 5 seconds, animal no 2 is exposed to 25 mA, etc. . . . (decreases of 5 mA) until the absence of tonic convulsions was observed. At this point, the intensity of ECS was increased by 2 mA for the next animal and then decreased or increased by 2 mA from animal to animal depending on whether the previous animal convulsed or not. The minimum current intensity applied is 5 mA and the maximum 95 mA. The first 5 animals serve to approach threshold current and were not included in the analysis. The results are presented as the mean current intensity administered to the final 15 animals of a group. The test was performed blind. A positive percent change indicates an anticonvulsant effect. A negative percent change indicates a proconvulsant effect. The test substance was evaluated at 4 doses, typically using 0.5% dimethylsulfoxide, 4% hydroxypropyl-b-cyclodextrin water as a vehicle, and administered p.o. 60 minutes before ECS, and compared with a vehicle control group. Diazepam (16 mg/kg p.o.), administered under the same experimental conditions, was used as reference substance. The experiment included 6 groups. Data with the test substance was analyzed by comparing treated groups with vehicle control using one-way ANOVA followed by Dunnett's t tests.

rats [4] = experiment: Pentylenetetrazole (PTZ) Seizure Test; assay type: in vivo; conditions: 10 mg/kg p.o. 30 min before PTZ 100 mg/kg s.c.
Method: Rats, placed in individual macrolon cages (25×19×13 cm), were injected with pentylenetetrazole (PTZ) (100 mg/kg s.c.). The occurrence and latency of clonic and tonic convulsions and death were noted over a 30 minute period. 15 rats were studied per group. The test was performed blind.
as §1
Compounds were evaluated typically using 0.5% dimethylsulfoxide, 4% hydroxypropyl-b-cyclodextrin water as a vehicle at 1 or more doses (e.g., 1, 3 and 10 mg/kg), administered p.o. 30 minutes before PTZ, and compared with a vehicle control group. Diazepam (16 mg/kg p.o.), administered 60 minutes before PTZ, was used as reference substance. The experiment was performed over 2 separate sub-experiments with N=7 to 8 animals per group and per sub-experiment. Quantitative data (latencies) with the test substance was analyzed by comparing treated groups with vehicle control using Kruskal-Wallis test followed by Mann-Whitney U test. Quantitative data with the reference substance was analyzed using Mann-Whitney U test. Quantal data (frequencies) was analyzed by comparing treated groups with vehicle control using Fisher's Exact Probability tests (*=p<0.05; **=p<0.01; ***=p<0.001).

rats [5] = experiment: Cortical spreading depression (CSD) migraine model; assay type: in vivo
Method: The cortical spreading depression model is utilized to investigate whether treatment with compounds of the present invention affect electrophysiological and hemodynamic events in a rat model of migraine.
Rats were anesthetized with 5% isoflurane (in 70% N2O and 30% O2; flow 300 ml/min) and placed in a stereotactic frame. […] The rectal temperature was maintained at 37.0±1.0° C. with a homeothermic blanket system. The skin was opened by a medial incision and retracted laterally. Three burr holes were drilled under saline cooling over the right hemisphere at the following coordinates (mm from bregma): (1) posterior 4.5, lateral, 2.0 (occipital cortex): KCl application site; (2) posterior 0.5, lateral 2.0 (parietal cortex): LDF recording site; (3) anterior 2, lateral 2 (frontal cortex): DC potential recording site. A laser-Doppler flow probe (Oxyflow, Oxford Optronics, UK) to monitor CBF and an invasive Ag/AgCl electrode for measuring direct current (DC) potential shifts were placed in the parietal and frontal cortex burr holes on the intact dura and in the cortex, respectively. The laser-Doppler flow probe was positioned in an area free of large pial and dural vessels to minimize a large-vessel contribution to the signal. For the DC-potential measurement, a reference electrode was fixed in the neck. Dura overlying the occipital cortex was gently removed and care was taken to avoid bleeding. After surgical preparation, the cortex was allowed to recover for 15 minutes under saline irrigation. A cotton ball (2 mm diameter) soaked with 1M KCl was placed on the pial surface and kept moist by placing 5 μl of KCl solution every 15 minutes. Test compound or vehicle was administered ten (10) minutes prior to CSD initiation. […] The number of KCl-induced CSDs was counted for 2 hours. The CBF and DC-potentials were monitored continuously starting from 5 minutes before KCl exposure.
Test compound E1-1.2 was administered as a mesylate salt (mpk based on molecular weight of the mesylate salt).
The data was collected in Windaq acquisition software (Dataq Instruments, USA) at 20 kHz. The raw data was analyzed in Clampfit program (Axon Instruments, USA). The signals were low pass filtered (cut off range 5-10000 Hz) that CSD episodes in DC and CBF could be confirmed. The following parameters were analyzed: i) the number, duration and amplitude of DC-potentials, and ii) the number and amplitude of CBF events.

[6] = E1-1.2 at various doses, MK-801 1.25 mg/kg

Compound | anticataleptic activity (rats [1]) | cumulative time spent on nociceptive behavior in phase I (0-5 mins) (rats [2]) | cumulative time spent on nociceptive behavior in phase II (20-35 mins) (rats [2]) | hERG @ 10 μM (%) (hERG channel) | CYP2D6 @ 10 μM (%) (CYP2D6) | activity on electroconvulsive threshold (rats [3]) | change in latency to death (rats [4]) | change in number of deaths vs vehicle controls (rats [4]) | magnitude of CBF vs vehicle (rats [5]) | number of DC potentials vs vehicle group (rats [5]; 3 mpk, 10 mpk and 30 mpk, mesylate salt) | number of CBF events vs vehicle (rats [5]; E1-1.2 at 10 mg/kg, MK-801 at 1.25 mg/kg) | amplitude of DC potentials vs vehicle (rats [5]; [6]) | duration of DC potentials vs vehicle (rats [5]; [6])
CC(N)Cc1ccccc1 (stereo not shown) [amphetamine] | showed the expected robust anticataleptic activity | – | – | – | – | – | – | – | – | – | – | – | –
Cc1ccc(COC(=O)N2CC[C@H](CNc3nccn4cnnc34)C(F)(F)C2)cc1 [Compound E1-1.2, (+)-R-4-methylbenzyl 4-(([1,2,4]triazolo[4,3-a]pyrazin-8-ylamino)methyl)-3,3-difluoropiperidine-1-carboxylate] | – | decreased | decreased | 17% | 14% | robust anticonvulsant activity | +35% | −91% | unchanged | significantly decreased | decreased | not statistically different compared to vehicle | not statistically different compared to vehicle
